From patent publication US20260098034A1, “2H-BENZOTRIAZOLE DERIVATIVE, PREPARATION METHOD THEREFOR, AND PHARMACEUTICAL COMPOSITION CONTAINING SAME” (ORXES THERAPEUTICS CO., LTD., priority 2022, published 2026)
Where “and” joins values, the source holds several entries; their conditions need not be identical. Identical values can stand only once.

Tested on: Wistar rats
Test: PCA-induced Wistar rat premature ejaculation model
Assay type: in vivo
Conditions: for Actual number of ejaculations / Number of the seminal vesicle contractions / Seminal vesicle basal pressure / Seminal vesicle peak pressure / The first contraction latency period / The first ejaculation latency period: within 30 min after PCA induction, individual rats; for latency period of initial seminal vesicle contraction compared with the PE model group: FIG. 4
Description: Male Wistar rats with a weight of about 300 g were adapted for one week before the experiment was started. On the day of the experiment, the animals were anesthetized with a combination of 20 mg/kg of Zoletil 50 via i.p. and 8 mg/kg of xylazine via i.p., and the body temperature was maintained at 37° C. with a thermal insulation blanket. Exposed common carotid artery was intubated with PE50 to monitor real-time arterial pressure (i.e. systolic pressure, diastolic pressure, and mean arterial pressure). The seminal vesicles and cavernosal muscles of the animals were exposed. The stable baselines of the pressure of the seminal vesicle and the cavernosal myoelectricity were recorded for 10 min. Then the drug was administered through the tail vein for the dapoxetine group, and the tested compound was orally administered for the tested compound group (for the PE model group, the drug was replaced with a solvent). After 1 min, for inducing PE modeling, 5 mg/kg of PCA was injected intraperitoneally, and then the seminal vesicle pressure curve and the change of bulbospongiosus EMG were continuously recorded for 30 min.
• A. Within 30 min, the actual number of ejaculations of the animals and the latency period of the first ejaculation; • B. Within 30 min, the number of the seminal vesicle contractions, the latency period of the first contraction, the basal pressure and the peak pressure.
The experimental data were expressed by means±S.E.M., and statistical analysis was performed by GraphPad Prism 7.0 software. Single factor variance analysis (One-way ANOVA) was used for comparison between multiple groups, and Dunnett't-test was used for statistical analysis in Post hoc test. Student's t-test was used for comparison between two groups. P<0.05 was considered as a significant difference.

[1] = 0.125 mg/kg p.o. + PCA 5 mg/kg i.p.
[2] = 0.5 mg/kg p.o. + PCA 5 mg/kg i.p.
[3] = 2 mg/kg p.o. + PCA 5 mg/kg i.p.

c1ccc2nn(CCCCN3CCN(c4noc5ccccc45)CC3)nc2c1 [Compound A001]
Actual number of ejaculations [1]: 8 and 9 and 11 (2×) and 10 | Number of the seminal vesicle contractions [1]: 10 and 11 and 12 and 13 and 16 | Seminal vesicle basal pressure [1]: 6.69 mmHg and 7.04 mmHg and 7.28 mmHg and 6.91 mmHg and 7.78 mmHg | Seminal vesicle peak pressure [1]: 17.17 mmHg and 21.45 mmHg and 22.67 mmHg and 23.39 mmHg and 20.58 mmHg | The first contraction latency period [1]: 784 s and 788 s and 605 s and 517 s and 839 s | The first ejaculation latency period [1]: 996 s and 726 s and 766 s and 823 s and 969 s | Actual number of ejaculations [2]: 0 (2×) and 2 (2×) and 3 | Number of the seminal vesicle contractions [2]: 0 (2×) and 5 and 4 and 6 | Seminal vesicle basal pressure [2]: 3.88 mmHg and 4.19 mmHg and 5.77 mmHg and 5.08 mmHg and 5.68 mmHg | Seminal vesicle peak pressure [2]: 4.89 mmHg and 5.09 mmHg and 11.06 mmHg and 16.57 mmHg and 14.89 mmHg | The first contraction latency period [2]: 1800 s (2×) and 1298 s and 1147 s and 1125 s | The first ejaculation latency period [2]: 1800 s (2×) and 1399 s and 1311 s and 1291 s | Actual number of ejaculations [3]: 2 and 0 (4×) | Number of the seminal vesicle contractions [3]: 4 and 0 and 1 (3×) | Seminal vesicle basal pressure [3]: 6.88 mmHg and 4.68 mmHg and 4.38 mmHg and 4.92 mmHg and 3.98 mmHg | Seminal vesicle peak pressure [3]: 18.65 mmHg and 6.99 mmHg and 6.07 mmHg and 7.32 mmHg and 6.05 mmHg | The first contraction latency period [3]: 968 s and 1800 s and 1687 s and 1774 s and 1629 s | The first ejaculation latency period [3]: 1055 s and 1800 s (4×)

Fc1ccc2c(C3CCN(CCCn4nc5ccccc5n4)CC3)noc2c1 [Compound A002]
Actual number of ejaculations [1]: 2 (2×) and 6 and 3 and 5 | Number of the seminal vesicle contractions [1]: 5 (2×) and 6 (2×) and 3 | Seminal vesicle basal pressure [1]: 5.88 mmHg and 6.10 mmHg and 6.02 mmHg and 4.66 mmHg and 3.97 mmHg | Seminal vesicle peak pressure [1]: 12.33 mmHg and 16.17 mmHg and 18.07 mmHg and 12.06 mmHg and 9.88 mmHg | The first contraction latency period [1]: 1266 s and 833 s and 825 s and 1198 s and 1499 s | The first ejaculation latency period [1]: 1422 s and 933 s and 966 s and 1276 s and 1345 s | Actual number of ejaculations [2]: 2 and 3 and 1 and 0 (2×) | Number of the seminal vesicle contractions [2]: 3 and 4 and 2 and 0 (2×) | Seminal vesicle basal pressure [2]: 5.76 mmHg and 5.88 mmHg and 5.79 mmHg and 3.67 mmHg and 3.87 mmHg | Seminal vesicle peak pressure [2]: 12.54 mmHg and 11.66 mmHg and 7.05 mmHg and 4.27 mmHg and 5.11 mmHg | The first contraction latency period [2]: 1176 s and 1307 s and 1355 s and 1800 s (2×) | The first ejaculation latency period [2]: 1233 s and 1346 s and 1432 s and 1800 s (2×) | Actual number of ejaculations [3]: 0 | Number of the seminal vesicle contractions [3]: 2 and 0 (4×) | Seminal vesicle basal pressure [3]: 4.15 mmHg and 4.12 mmHg and 4.85 mmHg and 4.11 mmHg and 3.93 mmHg | Seminal vesicle peak pressure [3]: 8.87 mmHg and 6.08 mmHg and 5.09 mmHg and 4.77 mmHg and 5.03 mmHg | The first contraction latency period [3]: 1568 s and 1800 s (4×) | The first ejaculation latency period [3]: 1800 s | latency period of initial seminal vesicle contraction compared with the PE model group (high dose group (2.0 mg/kg p.o.)): significant increase | latency period of initial seminal vesicle contraction compared with the PE model group (low dose group (0.125 mg/kg p.o.), P>0.05): no statistically significant differences | latency period of initial seminal vesicle contraction compared with the PE model group (medium dose group (0.5 mg/kg p.o.)): significant increase

Fc1ccc2c(C3CCN(CCCCn4nc5ccccc5n4)CC3)noc2c1 [Compound A003]
Actual number of ejaculations [1]: 0 (2×) and 4 (2×) and 5 | Number of the seminal vesicle contractions [1]: 3 (2×) and 8 (2×) and 7 | Seminal vesicle basal pressure [1]: 3.97 mmHg and 3.78 mmHg and 5.98 mmHg and 5.59 mmHg and 5.17 mmHg | Seminal vesicle peak pressure [1]: 4.08 mmHg and 4.25 mmHg and 16.58 mmHg and 14.17 mmHg and 18.06 mmHg | The first contraction latency period [1]: 1458 s and 1525 s and 707 s and 658 s and 735 s | The first ejaculation latency period [1]: 1800 s (2×) and 865 s and 778 s and 806 s | Actual number of ejaculations [2]: 6 (2×) and 2 and 0 (2×) | Number of the seminal vesicle contractions [2]: 9 (2×) and 5 and 0 (2×) | Seminal vesicle basal pressure [2]: 5.88 mmHg and 6.03 mmHg and 5.19 mmHg and 3.9 mmHg and 4.2 mmHg | Seminal vesicle peak pressure [2]: 18.97 mmHg and 20.11 mmHg and 12.84 mmHg and 4.09 mmHg and 4.76 mmHg | The first contraction latency period [2]: 778 s and 814 s and 1009 s and 1800 s (2×) | The first ejaculation latency period [2]: 845 s and 903 s and 1175 s and 1800 s (2×) | Actual number of ejaculations [3]: 0 | Number of the seminal vesicle contractions [3]: 1 and 0 (4×) | Seminal vesicle basal pressure [3]: 4.65 mmHg and 4.17 mmHg and 4.55 mmHg and 4.62 mmHg and 3.92 mmHg | Seminal vesicle peak pressure [3]: 8.13 mmHg and 5.24 mmHg and 4.9 mmHg and 4.89 mmHg and 4.86 mmHg | The first contraction latency period [3]: 1623 s and 1800 s (4×) | The first ejaculation latency period [3]: 1800 s

c1ccc2nn(CCCN3CCN(c4nsc5ccccc45)CC3)nc2c1 [Compound A004]
Actual number of ejaculations [1]: 0 (2×) and 3 and 6 and 4 | Number of the seminal vesicle contractions [1]: 3 and 4 and 8 and 6 and 2 | Seminal vesicle basal pressure [1]: 4.09 mmHg and 5.98 mmHg and 5.59 mmHg and 5.17 mmHg and 4.18 mmHg | Seminal vesicle peak pressure [1]: 4.21 mmHg and 13.38 mmHg and 16.13 mmHg and 15.05 mmHg and 4.25 mmHg | The first contraction latency period [1]: 1400 s and 797 s and 757 s and 735 s and 1525 s | The first ejaculation latency period [1]: 1800 s (2×) and 865 s and 678 s and 806 s | Actual number of ejaculations [2]: 5 and 6 and 2 and 0 (2×) | Number of the seminal vesicle contractions [2]: 7 and 8 and 3 and 0 (2×) | Seminal vesicle basal pressure [2]: 5.89 mmHg and 6.07 mmHg and 5.18 mmHg and 3.99 mmHg and 4.32 mmHg | Seminal vesicle peak pressure [2]: 17.95 mmHg and 29.19 mmHg and 13.88 mmHg and 4.79 mmHg and 4.77 mmHg | The first contraction latency period [2]: 798 s and 819 s and 1009 s and 1800 s (2×) | The first ejaculation latency period [2]: 845 s and 903 s and 1175 s and 1800 s (2×) | Actual number of ejaculations [3]: 0 | Number of the seminal vesicle contractions [3]: 0 | Seminal vesicle basal pressure [3]: 4.68 mmHg and 4.67 mmHg and 4.65 mmHg and 4.66 mmHg and 3.97 mmHg | Seminal vesicle peak pressure [3]: 5.18 mmHg and 5.26 mmHg and 4.96 mmHg and 4.79 mmHg and 4.87 mmHg | The first contraction latency period [3]: 1800 s | The first ejaculation latency period [3]: 1800 s

Fc1ccc2c(N3CCN(CCCn4nc5ccccc5n4)CC3)noc2c1 [Compound A005]
Actual number of ejaculations [1]: 0 (2×) and 4 (2×) and 5 | Number of the seminal vesicle contractions [1]: 2 and 3 and 6 and 8 and 7 | Seminal vesicle basal pressure [1]: 3.99 mmHg and 3.98 mmHg and 5.98 mmHg and 5.59 mmHg and 5.18 mmHg | Seminal vesicle peak pressure [1]: 4.09 mmHg and 4.29 mmHg and 16.56 mmHg and 17.17 mmHg and 18.08 mmHg | The first contraction latency period [1]: 1458 s and 1525 s and 707 s and 658 s and 738 s | The first ejaculation latency period [1]: 1800 s (2×) and 965 s and 878 s and 806 s | Actual number of ejaculations [2]: 5 (2×) and 3 and 0 (2×) | Number of the seminal vesicle contractions [2]: 6 and 7 and 4 and 0 (2×) | Seminal vesicle basal pressure [2]: 5.89 mmHg and 6.05 mmHg and 5.15 mmHg and 3.93 mmHg and 4.22 mmHg | Seminal vesicle peak pressure [2]: 18.99 mmHg and 19.11 mmHg and 12.85 mmHg and 4.09 mmHg and 4.76 mmHg | The first contraction latency period [2]: 778 s and 855 s and 1005 s and 1800 s (2×) | The first ejaculation latency period [2]: 845 s and 903 s and 1175 s and 1800 s (2×) | Actual number of ejaculations [3]: 0 | Number of the seminal vesicle contractions [3]: 0 (4×) and 1 | Seminal vesicle basal pressure [3]: 4.16 mmHg and 4.27 mmHg and 4.65 mmHg and 4.32 mmHg and 3.93 mmHg | Seminal vesicle peak pressure [3]: 5.26 mmHg and 5.22 mmHg and 7.15 mmHg and 4.83 mmHg and 4.89 mmHg | The first contraction latency period [3]: 1800 s (4×) and 1655 s | The first ejaculation latency period [3]: 1800 s
